# Results from patent US20090023753A1, “1,3-Thiazole-5-Carboxamides Useful as Cancer Chemotherapeutic Agents” (Bayer HealthCare AG, priority 2005, published 2009).
# Columns and labels:
# [1] = system: P-AKT/PKB in H209 small cell lung carcinoma cells; assay: P-AKT/PKB Cytoblot Assay with H209 cells (SCF-stimulated); assay type: cell-based; conditions: Homo sapiens, NCI-H209, 1 hour compound incubation, SCF 25 ng/mL for 5 minutes, p-(S473) AKT
# From the text: The utility of the compounds of the present invention can be illustrated, for example, by their activity in the P-AKT/PKB Cytoblot Assay described below. The involvement of the P-AKT/PKB[PI3K/AKt] pathway as a target for cancer chemotherapy has been recognized in the art. For example, see F. Chang et al, Involvement of PI3K/Akt pathway in cell cycle progression, apoptosis, and neoplastic transformation: a target for cancer chemotherapy, Leukemia, 2003, 17: p. 590-603; K. A. West et al, Activation of the PI3K/Akt pathway and chemotherapeutic resistance, Drug Resistance Updates, 2002, 5: p. 234-248; and P. Sen et al, Involvement of the Akt/PKB signaling pathway with disease processes, Molecular and Cellular Biochemistry, 2003, 253: p. 241-246.
# P-AKT/PKB Cytoblot Assay Protocol with H209 Cells
# H209 small cell lung carcinoma cells in log phase were plated at 50,000 cells/well in 96-well poly-lysine coated, clear bottom/black-sided plates (Becton-Dickinson, USA Cat # 354640) in 100 Ill RPMI medium containing 0.1% (w/v) BSA, and incubated overnight at 37° C. in 5% CO2 incubator. The following day, compounds (10 mM stock solutions in DMSO) were added to the plates to generate final concentrations of 0.0, 0.01, 0.03, 0.1, 0.3, 1.0, 3.0 and 10 μM for IC50 determinations and incubated for 1 hour at 37° C. Cells were then left untreated or stimulated with Stem Cell Factor (SCF: Biosource Cat # PHC2116) at a final concentration of 25 ng/mL for 5 minutes at 37° C. in 5% CO2 incubator. The media was then removed using a vacuum manifold and the cells were washed once with Tris Buffered Saline (TBS). Cells were then fixed by adding 200 μl of cold 3.7% (v/v) formaldehyde in TBS to each well for 15 minutes at 4° C. After removal of the formaldehyde, the cells were treated with the addition of 50 μl of methanol (at −20° C.) to each well for 5 minutes. After removal of the methanol, 200 μl of 1% (w/v) BSA in TBS was added to each well to block non-specific antibody binding sites and the plate was incubated at room temperature for 30 minutes.
# After removal of the blocking buffer, 50 μl of p-(S473) AKT rabbit polyclonal antibody (Cell Signaling, USA Cat # 9277S) was added at a dilution of 1:250 in 0.1% (w/v) BSA in TBS, and the plate was incubated at room temperature for 1 hour. Plates were then washed 3 times with cold TBS containing 0.05% (v/v) Tween 20 (TBS-T) and 100 μl of Horseradish peroxidase (HRP)-conjugated goat-anti-rabbit antibody (Amersham, USA Cat # NA934V) at a dilution of 1:250 in TBS-T was added and the plate was incubated at room temperature for 1 h. After washing with ice-cold TBS-T four times, 100 μl of Enhanced Chemiluminescence (ECL) reagent (Amersham, USA Cat# RPN2209) was added to each well and mixed on a mini-orbital shaker for 1 min. The plate was then read on a Perkin Elmer Victor 5 Multilabel Counter (#1420-0421).
# [2] = molecular target: T1, Flk-1 (murine VEGFR-2) kinase domain (Mus musculus, UniProt P35918); assay: Flk-1 (murine VEGFR-2) Biochemical Assay (TR-FRET); conditions: 10 μM ATP, 7 nM Flk-1 (kinase domain)
# T1 construct: 7 nM Flk-1 (kinase domain)
# T1 sequence (P35918 832-1160 limits assumed): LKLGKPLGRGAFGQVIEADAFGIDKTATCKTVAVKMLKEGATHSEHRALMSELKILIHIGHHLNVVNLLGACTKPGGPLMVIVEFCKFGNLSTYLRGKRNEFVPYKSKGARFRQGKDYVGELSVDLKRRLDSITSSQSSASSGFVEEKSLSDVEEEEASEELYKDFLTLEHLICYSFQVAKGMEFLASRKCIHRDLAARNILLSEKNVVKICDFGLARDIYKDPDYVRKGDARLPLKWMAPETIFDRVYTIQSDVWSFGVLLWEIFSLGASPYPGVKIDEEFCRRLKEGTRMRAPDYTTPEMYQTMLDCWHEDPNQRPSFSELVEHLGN
# [3] = system: phospho-ERK in MDA-MB-231 cells; assay: Phospho-ERK Cytoblot Assay with MDA-MB 231 cells; assay type: cell-based; conditions: Homo sapiens, 1 hour compound incubation, phospho-p44/42 MAP kinase (Thr202/Tyr204)
# From the text: The utility of the compounds of the present invention can also be illustrated, for example, by their activity in the phosph-ERK Assay described below. Growth-factor induction of the RAS/MEK/ERK signaling pathway leads to the induction of phosphorylation of a number of proteins including phospho-ERK (See C. J. Marshall, MAP kinase kinase kinase, MAP kinase kinase and MAP kinase, Current Opinions in Genetic Development, 1994, 4: p. 82-89). The importance of this pathway in cancer biology has been recognized in the art. Activation of the RAS signaling pathway is an important mechanism by which cancer develops (R. Herrera, et al, Unraveling the complexities of the Raf/MAP kinase pathway for pharmacological intervention, Trends Mol. Med., 2002, 8: p. S27-31). Mutational activation of RAS or downstream effectors as well as growth factor induction of this pathway leads to increased tumor cell proliferation and survival (A. A. Adjei, Blocking oncogenic RAS signaling for cancer therapy, J. Natl. Cancer Inst., 2001, 93(14): p. 1062-1074; J Schlessinger, Cell signaling by receptor tyrosine kinases, Cell, 2000, 103: p. 211-225). Phospho-ERK Cytoblot Assay Protocol with MDA-MB 231 Cells MDA-MB-231 cells in log phase were plated at 25,000 cells/well in 96-well opaque plates (Falcon, USA Cat # 353296) in 100 μL RPMI medium containing 10% (w/v) FBS, and incubated overnight at 37° C. in 5% CO2 incubator. The following day, the growth medium was removed from the plate by aspiration and replaced with RPMI medium containing 0.1% BSA and example compounds diluted to generate final concentrations of 0.0, 0.001, 0.003, 0.01, 0.03, 0.1, 0.3, 1 and 3 μM. Cells were incubated with compound for 1 hour at 37° C. in a 5% CO2 incubator. The media was then removed from the plate by aspiration and the cells were washed once with 180 μL/well cold Tris Buffered Saline (TBS). After removal of the wash buffer, the cells were fixed by adding 180 μL of cold 3.7% (v/v) formaldehyde in TBS to each well for 1 hour at 4° C. After removal of the formaldehyde, the cells were treated with the addition of 60 μL of −20° C. methanol to each well for 5 minutes at 4° C. The methanol was removed and the cells were washed with 180 μL/well of 5% (w/v) BSA in TBS. To block non-specific antibody binding sites, each well was treated with 180 μL/well 5% BSA (w/v) in TBS for thirty minutes at room temperature. After removal of the blocking buffer, 50 μL of an anti-phospho-p44/42 MAP kinase (Thr202/Tyr204) rabbit polyclonal antibody (Cell Signaling, USA Cat # 9101) was added to each well at a dilution of 1:1000 in 5% (w/v) BSA in TBS, and the plate was incubated at 4° C. overnight. Plates were then washed three times with 300 μL/well TBS at room temperature. The plates were then incubated with 50 μL of Horseradish peroxidase (HRP)-conjugated goat-anti-rabbit antibody (Amersham, USA Cat. # NA934V) at a dilution of 1:1000 in 5% BSA-TBS at room temperature for 1 hr. After washing the plate three times with 300 μL/well TBS, 60 μL of Enhanced Chemiluminescence (ECL) reagent (Amersham, USA Cat# RPN2209) was added to each well and incubated at room temperature for five minutes. The plate was then read on a Perkin Elmer Victor 5 Multilabel Counter (#1420-0421). […] The utility of the compounds of the present invention can also be illustrated, for example, by their activity in the flk-1 (murine VEGFR2) Assay described below. The VEGF-VEGFR2 signaling pathway has been extensively characterized as an important regulator of angiogenesis and tumor angiogeneisis (See G. Yancopoulos et al, Vascular-specific growth factors and blood vessel formation, Nature, 2000, 407: p. 242-248; D. Shweiki et al, Induction of vascular endothelial growth factor expression by hypoxia and by glucose deficiency in multi cell spheroids: Implications for tumor angiogenesis, Proc. Natl. Acad. Sci, 1995, 92: p. 768-772). Inhibition of tumor cell growth by blocking this pathway has been well documented in the art. […]
SMILES,IC50 [1] [nM],IC50 [2] [nM],IC50 [3] [nM]
"CNC(=O)c1cc(CNc2ncsc2C(=O)Nc2ccc3c(c2)OC(F)(F)C(F)(F)O3)ccn1 [Example 2, N-methyl-4-{[(5-{[(2,2,3,3-tetrafluoro-2,3-dihydro-1,4-benzodioxin-6-yl)amino]carbonyl}-1,3-thiazol-4-yl)amino]methyl}pyridine-2-carboxamide]",< 500,< 500,< 3000
"COCC(=O)Nc1cc(CNc2ncsc2C(=O)Nc2ccc3c(c2)OC(F)(F)O3)ccn1 [Example 7, N-(2,2-difluoro-1,3-benzodioxol-5-yl)-4-[([2-[(methoxyacetyl)amino]pyridin-4-yl]methyl)amino]-1,3-thiazole-5-carboxamide]",< 500,< 500,< 3000
"COCC(=O)Nc1cc(CNc2ncsc2C(=O)Nc2ccc3c(c2)OC(F)(F)C(F)(F)O3)ccn1 [Example 8, 4-[({2-[(methoxyacetyl)amino]pyridin-4-yl}methyl)amino]-N-(2,2,3,3-tetrafluoro-2,3-dihydro-1,4-benzodioxin-6-yl)-1,3-thiazole-5-carboxamide]",< 500,< 500,< 3000
"COCCOCC(=O)Nc1cc(CNc2ncsc2C(=O)Nc2ccc3c(c2)OC(F)(F)C(F)(F)O3)ccn1 [Example 9, 4-{[(2-{[(2-methoxyethoxy)acetyl]amino}pyridin-4-yl)methyl]amino}-N-(2,2,3,3-tetrafluoro-2,3-dihydro-1,4-benzodioxin-6-yl)-1,3-thiazole-5-carboxamide]",< 500,< 500,< 3000
"CC(=O)Nc1cc(CNc2ncsc2C(=O)Nc2ccc3c(c2)OC(F)(F)O3)ccn1 [Example 10, 4-([{2-(acetylamino)pyridin-4-yl]methyl}amino)-N-(2,2-difluoro-1,3-benzodioxol-5-yl)-1,3-thiazole-5-carboxamide]",< 500,< 500,< 3000
"CC(=O)Nc1cc(CNc2ncsc2C(=O)Nc2ccc3c(c2)OC(F)(F)C(F)(F)O3)ccn1 [Example 11, 4-({[2-(acetylamino)pyridin-4-yl]methyl}amino)-N-(2,2,3,3-tetrafluoro-2,3-dihydro-1,4-benzodioxin-6-yl)-1,3-thiazole-5-carboxamide]",< 500,< 500,< 3000
"CS(=O)(=O)Nc1cc(CNc2ncsc2C(=O)Nc2ccc3c(c2)OC(F)(F)C(F)(F)O3)ccn1 [Example 12, 4-[({2-[(methylsulfonyl)amino]pyridin-4-yl}methyl)amino]-N-(2,2,3,3-tetrafluoro-2,3-dihydro-1,4-benzodioxin-6-yl)-1,3-thiazole-5-carboxamide]",< 500,< 500,–
"Nc1cc(CNc2ncsc2C(=O)Nc2ccc3c(c2)OC(F)(F)O3)ccn1 [Example 15, 4-{[(2-aminopyridin-4-yl)methyl]amino}-N-(2,2-difluoro-1,3-benzodioxol-5-yl)-1,3-thiazole-5-carboxamide]",< 500,–,–
"Nc1cc(CNc2ncsc2C(=O)Nc2ccc3c(c2)OC(F)(F)C(F)(F)O3)ccn1 [Example 16, 4-{[(2-aminopyridin-4-yl)methyl]amino}-N-(2,2,3,3-tetrafluoro-2,3-dihydro-1,4-benzodioxin-6-yl)-1,3-thiazole-5-carboxamide]",< 500,< 500,–

# More lines, now with the values ahead:
IC50 [1] [nM],IC50 [2] [nM],IC50 [3] [nM],SMILES
< 500,< 500,< 3000,"CNC(=O)c1cc(CNc2ncsc2C(=O)Nc2ccc3c(c2)OC(F)(F)O3)ccn1 [Example 1, 4-{[(5-{[(2,2-difluoro-1,3-benzodioxol-5-yl)amino]carbonyl}-1,3-thiazol-4-yl)amino]methyl}-N-methylpyridine-2-carboxamide]"
< 500,< 500,–,"NC(=O)c1cc(CNc2ncsc2C(=O)Nc2ccc3c(c2)OC(F)(F)O3)ccn1 [Example 3, 4-{[(5-{[(2,2-difluoro-1,3-benzodioxol-5-yl)amino]carbonyl}-1,3-thiazol-4-yl)amino]methyl}pyridine-2-carboxamide]"
–,< 500,–,"O=C(NCCCCN1CCCC1)c1cc(CNc2ncsc2C(=O)Nc2ccc3c(c2)OC(F)(F)O3)ccn1 [Example 5, 4-{[(5-{[(2,2-difluoro-1,3-benzodioxol-5-yl)amino]carbonyl}-1,3-thiazol-4-yl)amino]methyl}-N-(4-pyrrolidin-1-ylbutyl)pyridine-2-carboxamide]"
< 500,< 500,–,"CN(C)CCCCNC(=O)c1cc(CNc2ncsc2C(=O)Nc2ccc3c(c2)OC(F)(F)O3)ccn1 [Example 6, 4-{[(5-{[(2,2-difluoro-1,3-benzodioxol-5-yl)amino]carbonyl}-1,3-thiazol-4-yl)amino]methyl}-N-[4-(dimethylamino)butyl]pyridine-2-carboxamide]"
